{
  "source": "patent US20170044100A1",
  "about": "“INHIBITORS OF DRUG-RESISTANT MYCOBACTERIUM TUBERCULOSIS” (THE JOHNS HOPKINS UNIVERSITY, priority 2014, published 2017)",
  "key": {"[1]": {"tested_on": "M. tuberculosis IAR2 (mmpL3 S288T mutant)", "format": "cell-based, Mycobacterium tuberculosis"}, "[2]": {"tested_on": "TF274 (extensively drug resistant strain of M. tuberculosis)", "experiment": "microbe, parasite or virus in culture", "format": "cell-based", "settings": "Mycobacterium tuberculosis; read-out: MIC TF274 (XDR)"}, "[3]": {"tested_on": "R506 (extensively drug resistant strain of M. tuberculosis)", "experiment": "microbe, parasite or virus in culture", "format": "cell-based", "settings": "Mycobacterium tuberculosis; read-out: MIC R506 (XDR)"}, "[4]": {"tested_on": "KZN494 (multi-drug resistant strain of M. tuberculosis)", "experiment": "microbe, parasite or virus in culture", "format": "cell-based", "settings": "Mycobacterium tuberculosis; read-out: MIC KZN494 (MDR)"}, "[5]": {"tested_on": "V2475 (multi-drug resistant strain of M. tuberculosis)", "experiment": "microbe, parasite or virus in culture", "format": "cell-based", "settings": "Mycobacterium tuberculosis; read-out: MIC V2475 (MDR)"}},
  "data": [
    {"compound": "AU1235", "values": [
      {"measurement": "MIC for IAR2", "setting": "[1]", "value": ">64", "unit": "µg/mL"}
    ]},
    {"compound": "NNC(=O)c1ccncc1", "note": "[Isoniazid, reference compound]", "values": [
      {"measurement": "Fold change in MIC for IAR2", "setting": "[1]", "value": 0},
      {"measurement": "MIC for IAR2", "setting": "[1]", "value": 0.04, "unit": "µg/mL"}
    ]},
    {"compound": "BM212", "values": [
      {"measurement": "Fold change in MIC for IAR2", "setting": "[1]", "value": 2},
      {"measurement": "MIC for IAR2", "setting": "[1]", "value": 4, "unit": "µg/mL"},
      {"measurement": "MIC upshift for IAR2 versus H37Rv", "setting": "[1]", "value": 2, "unit": "fold"}
    ]},
    {"compound": "CO[C@H]1/C=C/O[C@@]2(C)Oc3c(C)c(O)c4c(O)c(c(/C=N/N5CCN(C)CC5)c(O)c4c3C2=O)NC(=O)/C(C)=C\\C=C\\[C@H](C)[C@H](O)[C@@H](C)[C@@H](O)[C@@H](C)[C@H](OC(C)=O)[C@@H]1C", "note": "[Rifampin]", "values": [
      {"measurement": "Fold change in MIC for IAR2", "setting": "[1]", "value": 0.25},
      {"measurement": "MIC for IAR2", "setting": "[1]", "value": 0.03125, "unit": "µg/mL"},
      {"measurement": "MIC for IAR2 compared with H37Rv", "setting": "[1]", "value": "lower MIC value"}
    ]},
    {"compound": "CC[C@@H](CO)NCCN[C@@H](CC)CO", "note": "[Ethambutol]", "values": [
      {"measurement": "Fold change in MIC for IAR2", "setting": "[1]", "value": 0},
      {"measurement": "MIC for IAR2", "setting": "[1]", "value": 1, "unit": "µg/mL"}
    ]},
    {"compound": "Capreomycin", "values": [
      {"measurement": "Fold change in MIC for IAR2", "setting": "[1]", "value": 0},
      {"measurement": "MIC for IAR2", "setting": "[1]", "value": 1, "unit": "µg/mL"}
    ]},
    {"compound": "NCC[C@H](O)C(=O)N[C@@H]1C[C@H](N)[C@@H](O[C@H]2O[C@H](CN)[C@@H](O)[C@H](O)[C@H]2O)[C@H](O)[C@H]1O[C@H]1O[C@H](CO)[C@@H](O)[C@H](N)[C@H]1O", "note": "[Amikacin]", "values": [
      {"measurement": "Fold change in MIC for IAR2", "setting": "[1]", "value": 0},
      {"measurement": "MIC for IAR2", "setting": "[1]", "value": 1, "unit": "µg/mL"}
    ]},
    {"compound": "Cc1cc(C)c2cc(C(=O)NC3CCCCCCC3)[nH]c2c1", "note": "[Compound 12, N-Cyclooctyl-4,6-dimethyl-1H-indole-2-carboxamide]", "values": [
      {"measurement": "MIC", "setting": "[2]", "value": 0.026, "unit": "µM"},
      {"measurement": "MIC", "setting": "[3]", "value": 0.0067, "unit": "µM"},
      {"measurement": "Fold change in MIC for IAR2", "setting": "[1]", "value": 64},
      {"measurement": "MIC for IAR2", "setting": "[1]", "value": 0.25, "unit": "µg/mL"}
    ]},
    {"compound": "CC(C)=CCC/C(C)=C/CNCCNC1C2CC3CC(C2)CC1C3", "note": "(stereo not shown) [SQ109]", "values": [
      {"measurement": "Fold change in MIC for IAR2", "setting": "[1]", "value": 16},
      {"measurement": "MIC for IAR2", "setting": "[1]", "value": 4, "unit": "µg/mL"}
    ]},
    {"compound": "Cc1cc(C)c2cc(C(=O)NC3CCCCC3)[nH]c2c1", "note": "[Compound 3, N-Cyclohexyl-4,6-dimethyl-1H-indole-2-carboxamide]", "values": [
      {"measurement": "MIC", "setting": "[2]", "value": 0.46, "unit": "µM"},
      {"measurement": "MIC", "setting": "[4]", "value": 3.7, "unit": "µM"},
      {"measurement": "MIC", "setting": "[5]", "value": "0.93 to 1.9", "unit": "µM"},
      {"measurement": "MIC", "setting": "[3]", "value": 0.46, "unit": "µM"},
      {"measurement": "Fold change in MIC for IAR2", "setting": "[1]", "value": "≧(512-1024)"},
      {"measurement": "MIC for IAR2", "setting": "[1]", "value": "≧128 μg/mL"},
      {"measurement": "MIC upshift for IAR2 versus H37Rv", "setting": "[1]", "value": "≥ 1024", "unit": "fold"}
    ]},
    {"compound": "Cc1cc(C)c2cc(C(=O)NC3CCCCCC3)[nH]c2c1", "note": "[Compound 11, N-Cycloheptyl-4,6-dimethyl-1H-indole-2-carboxamide]", "values": [
      {"measurement": "MIC", "setting": "[2]", "value": 0.055, "unit": "µM"},
      {"measurement": "MIC", "setting": "[4]", "value": 0.11, "unit": "µM"},
      {"measurement": "MIC", "setting": "[5]", "value": 0.11, "unit": "µM"},
      {"measurement": "MIC", "setting": "[3]", "value": 0.055, "unit": "µM"},
      {"measurement": "Fold change in MIC for IAR2", "setting": "[1]", "value": "32-64"},
      {"measurement": "MIC for IAR2", "setting": "[1]", "value": 1, "unit": "µg/mL"}
    ]}
  ]
}
